melting point	SMILES
160 to 162 °C	COc1ccc(CNC(=O)c2cn3c(=O)n(Cc4ccccc4)c(=O)c(C)c3s2)cc1
267 to 271 °C	Cc1ncc2cc(-c3c(C)cccc3Cl)c(N)nc2n1
98 to 99 °C	COC(=O)COc1ccc([N+](=O)[O-])cc1
157 to 160 °C	COc1ccc(C(=O)N(C)c2ccc(C(=O)O)cc2)cc1
186 to 189 °C	COC(=O)C(C#N)C(=O)Nc1ccc(C(F)(F)F)cc1 (centres undefined)
238 to 239 °C	CCc1cc2c(O)c(C(=O)O)cnc2s1
120 to 122 °C	Cn1c(C(F)(F)F)cc(=O)n(-c2cc(OCOc3ccc(Cl)cc3)c(Cl)cc2F)c1=O
225 to 226 °C	Cc1oc(-c2ccccc2)nc1COc1ccc(C=C2SC(=O)NC2=O)cn1
99 to 101 °C	COc1ccc(C2=NN(C(C)(C)C)C(=O)[C@H]3CCCC[C@@H]23)cc1OC (relative stereo)
89 to 91 °C	CCC(=O)c1cc(F)c(OCC2CC2(Cl)Cl)cc1F (centres undefined)
121 to 123 °C	Nc1ccc(C(O)(C(F)(F)F)C(F)(F)F)cc1S
101 to 104 °C	Cc1ccc2nc([C@@H](C)NC(=O)OC(C)(C)C)sc2c1
186 to 191 °C	COc1cccc(S(=O)(=O)c2cccc(N)c2C#N)c1
206 to 208 °C	Nc1c(F)c(N2CCC(c3ccccn3)C2)c(F)c2c1c(=O)c(C(=O)O)cn2C1CC1 (centres undefined)
218 to 223 °C	CSc1nc(-c2ccccn2)n(-c2ccc(C)c(C)c2)c(=O)c1C#N
265 to 266 °C	COc1ccc(-n2c(-c3sc(Nc4ccccc4)nc3C)nc3ccccc3c2=O)cc1
159 to 162 °C	ON=C1CCC(c2ccc(Cl)c(Cl)c2)c2ccccc21 (centres undefined)
107 to 109 °C	COC(=O)CP(=O)(O)C(CCCc1ccccc1)NC(=O)OCc1ccccc1 (centres undefined)
183 to 185 °C	CCC(=O)c1ccc2c(c1)C1(CC1)C(=O)N2
234 to 236 °C	O=C(NCc1ccc(Cl)cc1)c1cnc2sc(Br)cc2c1O
120 to 124 °C	Cc1cc(C)cc(C(O)(CCc2cncn2Cc2ccccc2)c2cc(C)cc(C)c2)c1
150 to 152 °C	CCC(=O)Nc1onc2c1c(=O)n(C)c(=O)n2C
251 °C	Cc1cc(C=NNC(=O)c2ccc(O)cc2)oc1C
186 to 188 °C	c1ccc2c(c1)Nc1cc(-c3csc(CN4CCCCC4)n3)ccc1S2

melting point	SMILES
124 to 126 °C	Cc1ccc(N=C(Nc2ccc(C)cc2)ON2C(C)(C)CC(O)CC2(C)C)cc1
121 °C	CCOC(=O)C(C)N(c1ccc(S(=O)(=O)c2ccccc2)cc1C(F)(F)F)S(C)(=O)=O (centres undefined)
208 to 214 °C	CCOC(=O)c1cnc2sc(C(=O)Cc3ccccc3)c(C)c2c1O
101 to 102 °C	ClCc1ncc(-c2ccccc2)c2ccccc12
161 to 163 °C	Cn1c(=O)c2c(ncn2CCC(O)N2CCN(C(=O)c3ccco3)CC2)n(C)c1=O (centres undefined)
246 to 250 °C	CC(C)N(Cc1ccc2cc(NC(=O)c3ccc(-c4ccc(Cl)cc4)cc3)ccc2c1)C(C)C
103 to 105 °C	CN(N=C(Cl)c1c(F)cccc1Cl)S(=O)(=O)c1ccccc1
113 to 116 °C	Cc1csc(-c2sc(Br)cc2-c2ccc(F)cc2)c1
172 to 173 °C	CNC(=S)C1(c2cccnc2)CCCCC1=CCO (centres undefined)
205 to 207 °C	OCCCc1c[nH]c2ccc(-n3cnnc3)cc12
94.5 to 96 °C	CC(O)(C#Cc1ccc(C(=O)c2ccccc2)cc1)C(F)(F)F (centres undefined)
200 to 203 °C	CC=Cc1cccc2c(=O)c(C)c(NC(=O)OC(C)(C)C)oc12
158 to 160 °C	OC1CNc2nc3ccccc3n2C1 (centres undefined)
56 °C	CCCCCCCCOc1ccc(-c2ccc(OCC(C)OC(=O)C(C)CC)cc2)cc1 (centres undefined)
142 to 143 °C	O=C(Nc1ccc(OCCN2CCOCC2)c2ccccc12)c1cccc(-n2cccc2)c1
93 °C	CC(=O)OCCN1CCC(CNC(=O)[C@@H]2CCCN2S(=O)(=O)c2ccc(Cl)c(COc3cccc4c(-n5ccnc5)cc(C)nc34)c2Cl)CC1
41.2 °C	FC(F)(F)Oc1ccc(C2CCC3(CC2)OCCO3)cc1
> 260 °C	CN(C)C(=O)c1ccc(C(=O)O)c(S(=O)(=O)NC(C)(C)C)c1
194 to 197 °C	Cc1noc(-c2ccc(Cl)cc2)c1-c1ccc(S(N)(=O)=O)cc1
169 to 171 °C	O=c1cc(C=Cc2ccc(Cl)cc2)oc(-c2ccccc2)c1
225 °C	O=C(NCc1ccc(F)cc1)c1nc2n(c(=O)c1O)CCN2Cc1ccccc1
77 to 83 °C	CCCc1c(OCC(C)CC(=O)NC(C)CCCc2cccnc2)ccc(C(C)=O)c1O (centres undefined)
228 to 234 °C	O=C(Nc1ccc(C(=O)N2CCc3cn[nH]c3-c3ccccc32)cn1)c1ccccc1-c1ccccc1
154 to 155 °C	CCCCOc1ncc(-c2ccco2)cc1-c1nc2c(CC)n(CCOC)nc2c(=O)[nH]1

melting point	SMILES
141 to 142 °C	CCCc1cc(Cl)c2oc(C(=O)c3ccccc3)c(C)c2c1OC(=O)c1ccccc1
326 to 328 °C	COc1ccc2nc(-c3ccc(OC)c(F)c3)cc(O)c2c1
76 to 79 °C	Nc1ccccc1C(O)C1CC1 (centres undefined)
85 to 87 °C	O=C(Cc1cccc(C(F)(F)F)c1)Cn1cncn1
99 to 100 °C	COC(=O)c1cc(C(=O)N(C)CC(=O)N(C)C)c2cc(Cc3ccc(F)cc3)cnc2c1O
156 to 157 °C	CS(=O)(=O)NCCCCn1c(CCCOc2ccccc2)nc2c(N)nc3ccccc3c21
146 °C	COC(=O)C1Cc2c([nH]c3ccccc23)C(c2cccc(OC)c2)N1 (centres undefined)
164 to 166 °C	COc1ncc(CN2C(=O)C3(COc4cc5c(cc43)OCO5)c3ccccc32)s1 (centres undefined)
134 °C	Brc1ccccc1C1=NOC2(N3CCCC3)CCCCC12 (centres undefined)
156 to 160 °C	Nc1nc(CN2CCN(C(c3ccccc3)c3ccccc3)CC2)cs1
166 to 168 °C	Cc1ccc(NC(=O)c2cc(Cl)ccc2NCC2CCN(C3CCOCC3)CC2)nc1
179 to 180 °C	Cc1c(C(=O)Nc2ccc(N3CCN(CCO)CC3)c(C#N)c2)cnn1-c1ccc(F)cc1
139 to 141 °C	COC(=NC(=O)c1ccccc1)NC(=O)c1ccccc1
> 280 °C	CN1C(C)(C)CC(NC(=O)c2ccc(-c3nc4cc(Cl)c(Cl)cc4[nH]3)cc2)CC1(C)C
70 °C	CCN(CC)C(=O)CCc1cc2ccccc2c(-c2ccccc2)n1
188 to 190 °C	COC(=O)c1ccc(OCC2CN(c3ccc(NC(C)=O)cc3)C(=O)O2)cc1 (centres undefined)
137 to 138 °C	COC(=O)Cc1ccc(C(O)(C#N)c2ccccc2)n1C (centres undefined)
188 to 190 °C	N#CCCNC(=O)c1n[nH]cc1NC(=O)c1cccc(C(F)(F)F)c1
93 to 95 °C	COc1cccc(CC(=S)SCC(=O)O)c1
94 to 95 °C	CCCCOC(=O)c1cc(=NS(=O)(=O)c2ccccc2)c2c(Cl)cc(Cl)cc2[nH]1
238 to 240 °C	COc1cc2c(Nc3ccc(Sc4nccn4C)c(Cl)c3)c(C#N)cnc2cc1-c1csc(CN2CCOCC2)c1
128 to 130 °C	CN1CCC(c2nn(CO)c3ccccc23)CC1
267 to 269 °C	CC(C)(C)OC(=O)Nc1ccc(-c2c[nH]c(=O)cn2)cc1
132 to 133 °C	CC(=O)Oc1ccc(C(=O)OC2C=C(C)C(=O)CC(C)(C)C2O)cc1 (centres undefined)

melting point	SMILES
139 to 142 °C	CC(C)(C)[Si](C)(C)Oc1ccccc1-c1cc(-c2cccc([N+](=O)[O-])c2)c(C#N)c(NC(=O)c2ccsc2)n1
113 to 116 °C	CN1CCN(c2cc(Cl)cc3c2c(=O)n(Cc2ccccc2)c(=O)n3Cc2ccccc2)CC1
153 to 155 °C	CSc1ccc(C2C(=O)c3ccccc3C2=O)cc1
56 to 58 °C	CS(=O)(=O)Oc1cccnc1
168 to 170 °C	CN1C(O)=C(C(=O)Nc2ccccc2Cl)c2ccsc2S1(=O)=O
166 to 168 °C	CC1Oc2cc(F)ccc2NC1=O (centres undefined)
142 to 144 °C	CCOC(=O)C(=O)Nc1cc(C#N)c(C(C)=O)cc1[N+](=O)[O-]
85 to 89 °C	COC(=O)C(Sc1ccc(C)cc1)(C1=NCCCS1)[N+](=O)[O-] (centres undefined)
110 °C	CON(Cc1ccc(NC(C)=O)cc1)C(=O)C1=C(O)C(=O)N(C)C1
108 °C	COc1ccc(C=CC(=O)c2ccc(OC)cc2O)cc1
97 to 100 °C	CCCCCCCC(=O)NNC(=O)N1Cc2ccccc2Oc2ccc(C(F)(F)F)cc21
132 °C	CCOC(C)(C)C(=O)O[C@H]1C[C@H](O)C=C2C=C[C@H](C)[C@H](CC[C@@H]3C[C@@H](O)CC(=O)O3)[C@H]21
169 to 171 °C	COCCc1nc2c(N)nc3ccccc3c2n1CC1(O)CCC1
134 to 135 °C	CC(Nc1ccc(Cl)c(Cl)c1)C(=O)NCC#N (centres undefined)
168 to 169 °C	CCOc1c(OC)cccc1-c1nc2ccc(C(=O)O)cc2c(=O)[nH]1
140 to 144 °C	N#Cc1ccc(-n2c(N)nc3ccccc32)cc1-c1ccoc1
176 to 178 °C	N#Cc1ccc(CNC(=O)Cc2ccc(O)cc2)cc1
154 to 156 °C	COC(=O)c1cc(N)ccc1Oc1ccccc1
128 to 129 °C	CCC(=O)c1cccc(C(=O)Nc2ccccn2)c1
84 to 85 °C	COCCNC(=O)c1cc(-c2cccc3cc(Cc4cc(F)cc(Cl)c4)sc23)ccc1F
158 to 160 °C	Cc1cc(C(=O)C(C#N)C(=O)Nc2ccccc2)c(C)n1C (centres undefined)

SMILES	melting point
O=C(NC1N=C(c2ccccc2F)c2ccccc2-n2cnnc21)OCc1ccccc1 (centres undefined)	123 °C
CC12CCC3c4ccc(OC(=O)Cc5ccccc5)cc4CCC3C1CCC2=O (centres undefined)	114 to 116 °C
Clc1nc(OC(Cl)(Cl)Cl)cc(C(Cl)(Cl)Cl)n1	67 to 69 °C
O=C(Nc1ccc(Cl)cc1)NC1N=C(c2ccccc2F)c2ccccc2NC1=O (racemic)	278 °C
COOC(=O)c1cc2c(Cl)cn(C)c2nc1C(=O)OOC	129 to 137 °C
Cn1cncc1C(N)(c1ccc(Cl)cc1)c1ccc2c(c1)C(c1cccc(Cl)c1)=NCc1nnnn1-2 (centres undefined)	218 °C

Source: a melting point compilation (Tetko et al.; mined from patent text by program, amines drawn as free bases though some values may be those of a salt)
